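Here, GI50 denotes the concentration required for 50% inhibition of growth. TGI denotes the concentration required for complete inhibition of growth.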
Assays:
Assay in all cases: NCI-60 cell line screen, 384-well format
MCF7 breast = tested on: MCF7 breast
COLO 205 colon = tested on: COLO 205 colon
RXF 393 renal = tested on: RXF 393 renal
A498 renal = tested on: A498 renal
MDA-MB-468 breast = tested on: MDA-MB-468 breast
ACHN renal = tested on: ACHN renal
OVCAR-5 ovarian = tested on: OVCAR-5 ovarian
SF-268 CNS = tested on: SF-268 CNS
SK-OV-3 ovarian = tested on: SK-OV-3 ovarian
OVCAR-8 ovarian = tested on: OVCAR-8 ovarian
OVCAR-4 ovarian = tested on: OVCAR-4 ovarian
UO-31 renal = tested on: UO-31 renal
UACC-62 melanoma = tested on: UACC-62 melanoma
IGROV1 ovarian = tested on: IGROV1 ovarian
SNB-19 CNS = tested on: SNB-19 CNS
NCI-H226 lung = tested on: NCI-H226 lung
SF-539 CNS = tested on: SF-539 CNS
NCI-H23 lung = tested on: NCI-H23 lung
HOP-92 NSCLC = tested on: HOP-92 NSCLC
HT29 colon = tested on: HT29 colon
HS 578T breast = tested on: HS 578T breast
PC-3 prostate = tested on: PC-3 prostate
A549 NSCLC = tested on: A549 NSCLC
KM12 colon = tested on: KM12 colon
SW-620 colon = tested on: SW-620 colon
NCI-H322M lung = tested on: NCI-H322M lung
SN12C renal = tested on: SN12C renal
DU-145 prostate = tested on: DU-145 prostate
MALME-3M melanoma = tested on: MALME-3M melanoma
NCI/ADR-RES ovarian = tested on: NCI/ADR-RES ovarian
HCC-2998 colon = tested on: HCC-2998 colon
UACC-257 melanoma = tested on: UACC-257 melanoma
BT-549 breast = tested on: BT-549 breast
CCRF-CEM leukemia = tested on: CCRF-CEM leukemia
HOP-62 NSCLC = tested on: HOP-62 NSCLC
MOLT-4 leukemia = tested on: MOLT-4 leukemia
MDA-MB-231 breast = tested on: MDA-MB-231 breast
SK-MEL-28 melanoma = tested on: SK-MEL-28 melanoma
HCT-116 colon = tested on: HCT-116 colon
K-562 leukemia = tested on: K-562 leukemia
SNB-75 CNS = tested on: SNB-75 CNS
OVCAR-3 ovarian = tested on: OVCAR-3 ovarian
TK-10 renal = tested on: TK-10 renal
HCT-15 colon = tested on: HCT-15 colon
LOX IMVI melanoma = tested on: LOX IMVI melanoma
SF-295 CNS = tested on: SF-295 CNS

**Q.** What does the source list for `COc1cc(Nc2ncc3c(n2)-c2ccc(Cl)cc2C(c2c(F)cccc2OC)=NC3)ccc1C(=O)O`?
**A.** GI50 (MCF7 breast): 1.7 µM; TGI (MCF7 breast): > 100 µM; GI50 (COLO 205 colon): 0.0376 µM; TGI (COLO 205 colon): > 100 µM; GI50 (RXF 393 renal): 0.0513 µM; TGI (RXF 393 renal): 7.31 µM; GI50 (A498 renal): 0.0833 µM; TGI (A498 renal): 29.6 µM; GI50 (MDA-MB-468 breast): 0.0199 µM; TGI (MDA-MB-468 breast): 0.0534 µM; GI50 (ACHN renal): 1.81 µM; TGI (ACHN renal): 19.7 µM; GI50 (OVCAR-5 ovarian): 4.4 µM; TGI (OVCAR-5 ovarian): 30.3 µM; GI50 (SF-268 CNS): 0.0113 µM; TGI (SF-268 CNS): 0.0549 µM; GI50 (SK-OV-3 ovarian): 4.11 µM; TGI (SK-OV-3 ovarian): 22.6 µM; GI50 (OVCAR-8 ovarian): 7.27 µM; TGI (OVCAR-8 ovarian): 36.9 µM; GI50 (OVCAR-4 ovarian): 9.41 µM; TGI (OVCAR-4 ovarian): 50.4 µM; GI50 (UO-31 renal): 4.32 µM; TGI (UO-31 renal): 20.7 µM; GI50 (UACC-62 melanoma): 0.768 µM; TGI (UACC-62 melanoma): 35.4 µM; GI50 (IGROV1 ovarian): 0.743 µM; TGI (IGROV1 ovarian): 13.5 µM; GI50 (SNB-19 CNS): 9.37 µM; TGI (SNB-19 CNS): 61.9 µM; GI50 (NCI-H226 lung): 1.28 µM; TGI (NCI-H226 lung): 10.9 µM; GI50 (SF-539 CNS): 0.0651 µM; TGI (SF-539 CNS): 25.2 µM; GI50 (NCI-H23 lung): 1.26 µM; TGI (NCI-H23 lung): 14.9 µM; GI50 (HOP-92 NSCLC): 2.18 µM; TGI (HOP-92 NSCLC): 17.2 µM; GI50 (HT29 colon): 1.49 µM; TGI (HT29 colon): > 100 µM; GI50 (HS 578T breast): 0.0403 µM; TGI (HS 578T breast): 12.4 µM; GI50 (PC-3 prostate): 12 µM; TGI (PC-3 prostate): 45.2 µM; GI50 (A549 NSCLC): 0.0795 µM; TGI (A549 NSCLC): 16.8 µM; GI50 (KM12 colon): 0.0838 µM; TGI (KM12 colon): > 100 µM; GI50 (SW-620 colon): 0.202 µM; TGI (SW-620 colon): 28.1 µM; GI50 (NCI-H322M lung): 19.3 µM; TGI (NCI-H322M lung): > 100 µM; GI50 (SN12C renal): 0.0522 µM; TGI (SN12C renal): 17 µM; GI50 (DU-145 prostate): 10.6 µM; TGI (DU-145 prostate): 26.6 µM; GI50 (MALME-3M melanoma): 17.9 µM; TGI (MALME-3M melanoma): 60.7 µM; GI50 (NCI/ADR-RES ovarian): 0.369 µM; TGI (NCI/ADR-RES ovarian): 31.4 µM; GI50 (HCC-2998 colon): 3.24 µM; TGI (HCC-2998 colon): 47.9 µM; GI50 (UACC-257 melanoma): 13.7 µM; TGI (UACC-257 melanoma): 52.6 µM; GI50 (BT-549 breast): 0.0986 µM; TGI (BT-549 breast): 20.1 µM; GI50 (CCRF-CEM leukemia): 0.0192 µM; TGI (CCRF-CEM leukemia): 0.0773 µM; GI50 (HOP-62 NSCLC): 0.179 µM; TGI (HOP-62 NSCLC): 31.9 µM; TGI (MOLT-4 leukemia): 0.0209 µM; GI50 (MDA-MB-231 breast): 2.72 µM; TGI (MDA-MB-231 breast): 23.6 µM; GI50 (SK-MEL-28 melanoma): 13.2 µM; TGI (SK-MEL-28 melanoma): 51.7 µM; GI50 (HCT-116 colon): 0.0293 µM; TGI (HCT-116 colon): 25.2 µM; GI50 (K-562 leukemia): 0.0367 µM; TGI (K-562 leukemia): 11.5 µM; GI50 (SNB-75 CNS): 3.1 µM; TGI (SNB-75 CNS): 17 µM; GI50 (OVCAR-3 ovarian): 0.0915 µM; TGI (OVCAR-3 ovarian): 14.6 µM; GI50 (TK-10 renal): 4.77 µM; TGI (TK-10 renal): 21.7 µM; GI50 (HCT-15 colon): 0.0581 µM; TGI (HCT-15 colon): 37.2 µM; GI50 (LOX IMVI melanoma): 0.725 µM; TGI (LOX IMVI melanoma): 17.8 µM; GI50 (SF-295 CNS): 0.088 µM; TGI (SF-295 CNS): 24.6 µM

Source: PubChem BioAssay (NCI)
